Laboratory results reported in patent US20170165317A1, “METHOD FOR MITIGATING OR ALLEVIATING SYNAPTIC AND COGNITIVE DEFICITS” (Trustees of Dartmouth College, priority 2013, published 2017).

What was measured:
[1] = test system: CA1 hippocampal region; experiment: LTP of fEPSPs in CA1 of acute hippocampal slices exposed to protofibrillar Aβ42; type: cell-based, mice; details: 50 nM VO-OHpic 1 hour before addition of 1 μM Aβ42
Experimental: Mice were anesthetized with sodium pentothal (20 mg/kg ip) and decapitated. The brain was rapidly removed to ice-cold, oxygenated, dissection solution. Coronal slices (300 μm) were made with a vibratome (LEICA VT1200S) and slices were moved to a recovery chamber containing aCSF at room temperature for at least 1.5 hour before recording.
A concentric bipolar platinum-iridium stimulation electrode and a low-resistance glass recording microelectrode filled with aCSF (3-4 MΩ resistance) were placed in CA1 stratum radiatum to record the extracellular field excitatory postsynaptic potentials (fEPSPs). For each slice, an input-output curve was recorded to compare basal synaptic transmission at different conditions. This curve was also used to set the baseline fEPSP at ≈30% (for LTP experiments) or ≈50% (for LTD experiments) of maximal slope. Baseline stimulation was delivered every 15 seconds (0.01 ms duration pulses) for at least 20 minutes before beginning the experiment to ensure stability of the response. LTP was induced by using θ-burst stimulation (4 pulses at 100 Hz, with the bursts repeated at 5 Hz and each tetanus including three 10-burst trains separated by 15 seconds). LTD was induced using 900 pulses at 1 Hz. Responses were recorded for 1 hour after induction of LTP or LTD. […]

[2] = test system: APPswe/lnd-EGFP infected neurons; experiment: APP expression, APP fragments and Aβ production/secretion in APPswe/lnd-infected slice cultures (ELISA, western blot); type: cell-based, rat; details: slice cultures with or without PTEN inhibitor
Experimental: (§1) Hippocampal slices overexpressing Aβ were maintained for 3 days after virus injection with or without the PTEN inhibitor VO-OHpic, before culture medium was collected for measurements. Aβ40 and Aβ42 level were determined in solubilized hippocampal fractions, cultured hippocampal slices or conditioned media by ELISA according to the manufacturer's instructions (WAKO/Invitrogen) that specifically detect the C-terminus of Aβ40 and Aβ42, respectively.
Hippocampi from APP/PS1 mice or their wild-type littermates and organotypic hippocampal slices infected with APPswe/lnd-EGFP/APPwt-EGFP/APPMV-EGFP were solubilized, and extracts were prepared for western blot analysis. […] APPsα was detected in conditioned media of the respective slices using antibody 6E10 that selectively detects human APPsα. Levels of APP, CTFα and CTFβ were detected in lysates of the infected slices using APPCt antibody. […]
However, this form of depression may in principle be due to Aβ exposure, to intracellular fragments derived from APP processing, or a combination thereof. To test the role of PTEN specifically in the effects of neuron-secreted Aβ, synaptic dysfunctions were monitored in untransfected cells neighboring APPswe/lnd-expressing neurons. […]

[3] = target: T1, Aβ42 (Homo sapiens, UniProt P05067); experiment: Thioflavin-T fluorescence assay of Aβ42 aggregation; type: biochemical; details: 50 nM VO-OHpic or 15 nM bPV(HOpic), 37° C.
T1 construct: Lyophilized Aβ42 peptide was purchased from Keck Facility at Yale University; purchased Keck Facility at Yale University; host or cells: synthetic peptide
T1 sequence (P05067 672-713): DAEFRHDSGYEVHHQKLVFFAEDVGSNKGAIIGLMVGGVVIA
Experimental: Freshly prepared Aβ42 was prepared as described for protofibrillar Aβ42. The Thioflavin-T (ThT) assay was carried out at 37° C., within a dark chamber in a 96-well plate. Each well contained 100 ng/μL of Aβ42, 20 μM ThT and 50 nM VO-OHpic or 15 nM bPV(HOpic). Fluorescence (λex=450 nm; λem=485 nm) was followed over time in a FLUOSTAR OPTIMA (BMG LabTech) fluorescence spectrophotometer. Samples were run in triplicates. […] Thus, the observed rescue of basal synaptic transmission, LTP and cognition, with VO-OHpic was not likely due to an altered aggregation state of Aβ upon PTEN inhibition.

[4] = test system: APP/PS1 mice; experiment: Hippocampal APP, C-terminal fragments, Aβ monomers and SDS-resistant Aβ assemblies after in vivo treatment (western blot, ELISA); parameters: species or system mouse; details: after VO-OHpic treatment, end of last behavioural test
Experimental: as §1
Hippocampi from APP/PS1 mice or their wild-type littermates and organotypic hippocampal slices infected with APPswe/lnd-EGFP/APPwt-EGFP/APPMV-EGFP were solubilized, and extracts were prepared for western blot analysis. Mouse brains or brain sections were homogenized on ice in RIPA buffer (1% TRITON X-100, 1% sodium deoxycholate, 0.1% SDS, 150 mM NaCl, 50 mM Tris-HCl, pH 7.2), using an ULTRATURRAX T25 (Janke & Kunkel). Samples were centrifuged at 15,000×g, and supernatants were used for protein determination. APPsα was detected in conditioned media of the respective slices using antibody 6E10 that selectively detects human APPsα. Levels of APP, CTFα and CTFβ were detected in lysates of the infected slices using APPCt antibody.
After the end of the last test, the levels of APP and its C-terminal fragments (western blot), Aβ monomers (ELISA), and SDS-resistant. Aβ assemblies (SDS-PAE) were measured from the hippocampus of each mouse. […]

[5] = test system: PTEN; experiment: phospho-Akt and phospho-Tyr levels in acute hippocampal slices; type: cell-based, mice

O=C(O)c1ncccc1O.O=C(O)c1ncccc1O.[O]=[V][O-] [VO-OHpic]
LTP expression in presence of Aβ42 [1]: rescued the expression of LTP | recombinant APP expression, formation of C-terminal APP fragments, Aβ production/secretion [2]: independent of VO-OHpic treatment | Aβ42 aggregation (ThT fluorescence) [3]: does not alter Aβ42 aggregation | levels of APP and its C-terminal fragments, Aβ monomers and SDS-resistant Aβ assemblies in hippocampus [4]: No changes were detected | phospho-Akt (PIP3 downstream effector) [5]: upregulation | phospho-Tyr levels (specificity versus Tyr phosphatases) [5]: lack of effect
